Assay results published in patent US4268680A, “Heterocyclic derivatives of 1-(1,3-dioxolan-2-ylmethyl)-1H-imidazoles and 1H-1,2,4-triazoles” (Janssen Pharmaceutica N.V., priority 1979, dated 1981).

Test system: Candida albicans
Experiment: Experiment B: Activity of compounds (I) against crop candidosis in turkeys
Type: in vivo
Details: Table II; medicated feed for 13 consecutive days; crops of 50% of the animals completely negative for Candida albicans
Description: Experiment B: Activity of compounds (I) against crop candidosis in turkeys. Turkeys of 14 days old were infected in the crop with 4.10^6 Candida albicans cells, grown on Sabouraud broth for 48 hours at 37° C. and diluted with saline. The volume of the inoculum was 1 ml. The drug under investigation were premixed in 500 mg of lacton and thereafter admixed in 1000 g of meal without any additives. The concentration of the drug under investigation in the meal was expressed in mg/kg. The animals were given the medicated feed for 13 consecutive days starting on the day of infection. At the end of the experiment all animals were sacrificed. At autopsy the crops were removed, emptied and grinded in an ultra-turrax mixer in 15 ml of sterile saline. Colony counting was done on Sabouraud agar and the results given in Tables I and II represent the ED50, i.e., the dose of the drug whereby the crops of 50% of the animals were completely negative for Candida albicans.

Question: Which “Crop candidosis in Turkeys: EO50 in mg/kg in feed” value does the source give for `Clc1ccc(C2(Cn3cncn3)OCC(COc3ccc(-n4ccnc4)cc3)O2)c(Cl)c1` (stereo not shown) here?
Answer: 8 mg/kg in feed
